The target of experiment [1] is T1, thromboxane A2 (TxA2) receptor (Cavia porcellus, UniProt A0A286Y4I8).
T1 construct: to obtain washed platelets; from tissue; host or cells: washed platelets of male Hartley guinea pigs
T1 sequence (A0A286Y4I8 1-347): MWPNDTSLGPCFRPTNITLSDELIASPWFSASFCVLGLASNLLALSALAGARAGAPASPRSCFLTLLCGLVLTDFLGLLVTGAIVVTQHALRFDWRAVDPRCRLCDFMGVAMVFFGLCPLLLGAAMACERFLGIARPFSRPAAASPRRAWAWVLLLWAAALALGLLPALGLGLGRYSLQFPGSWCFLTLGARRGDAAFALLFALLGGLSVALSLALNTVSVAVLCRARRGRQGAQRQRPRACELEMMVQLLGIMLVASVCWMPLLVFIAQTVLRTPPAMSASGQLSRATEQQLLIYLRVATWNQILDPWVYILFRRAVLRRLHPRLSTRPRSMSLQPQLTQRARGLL
The experiment can be described thus: TxA2 antagonist action by binding assay. To be noted: washed guinea pig platelets, 1 nM [3H]-SQ29,548, 45 minutes at 25° C. In short, it runs like this:
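Washed platelets from male Hartley guinea pigs, 4×10^8 cells/ml, were incubated with test compound and a labelled ligand for 45 minutes at 25 °C. Bound radioactivity was collected by GF/B filtration and scintillation counting; IC50 came from binding/control-binding ratio.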

The target in experiment [2] is T2, isolated rat artery (thoracic aorta) (Rattus norvegicus, UniProt P34978).
T2 construct: the thoracic aorta was quickly removed; from tissue; host or cells: thoracic aorta rings of male Wistar rats, endothelium 'gently cleaned'
T2 sequence (P34978 1-341): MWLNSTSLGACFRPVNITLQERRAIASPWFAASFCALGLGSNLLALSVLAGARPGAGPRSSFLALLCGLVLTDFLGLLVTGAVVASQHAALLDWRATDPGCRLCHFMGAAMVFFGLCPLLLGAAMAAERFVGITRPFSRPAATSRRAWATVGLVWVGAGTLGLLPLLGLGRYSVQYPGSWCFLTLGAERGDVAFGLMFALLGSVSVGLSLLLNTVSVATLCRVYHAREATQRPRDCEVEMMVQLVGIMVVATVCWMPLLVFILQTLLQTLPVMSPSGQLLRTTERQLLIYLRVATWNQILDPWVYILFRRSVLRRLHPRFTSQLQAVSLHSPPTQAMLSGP
The experiment can be described thus: Inhibitory activity of vasoconstriction of isolated rat artery. Type of experiment: cell-based. The conditions noted are these: pA2; rat thoracic aorta ring preparation, 37° C.; read-out: B: Inhibitory activity of vasoconstriction (rat artery) (pA2) (converted). The method, then:
(2) Inhibitory Activity of Vasoconstriction of Isolated Rat Artery
Rats (Wistar; male; body weight=250-300 g) were stunned by a blow to the head and exsanguinated. Then, the thoracic aorta was quickly removed, and the connective tissue and the endothelium were gently cleaned and then ring preparation was cut. The preparations were suspended in a 25 ml organ bath which was maintained at 37° C. under an aeration of 95% O2 -5% CO2. An initial tension of 1.5 g was applied and preincubation was performed for 60 minutes. The organ bath was filled with Krebs-Henselait solution (NaCl=118, KCl=4.7, CaCl2 2.55, MgSO4 =1.18, KH2 PO4 =1.18, NaHCO3 =24.88, glucose=11.1). The constriction of the samples was ionotropicaly measured using an isometric transducer (UL-10GR, Minebea) and an amplifier (6M92, NEC SANEI) and recorded by a recticorder (RECTI-HORIZ-8K, NEC SANEI).

Another experiment has as its system rat platelet. The experiment can be described thus: Inhibitory activity of aggregation in rat platelet. Type of experiment: cell-based. To be noted: rat platelet rich plasma, arachidonic acid (final concentration 0.5 mM) as inducer; read-out: C: Inhibitory activity of aggregation in rat platelet (IC50; μM). In short, it runs like this:
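Platelet-rich plasma was prepared from citrated (0.38% final) rat abdominal arterial blood and preincubated 1 min at 37°C. Compound was added 2 min before arachidonic acid (0.5 mM final). Light transmission change was recorded for 5 min.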

One may read the IC50 as the concentration that inhibits the measured activity by half.

For the compound `O=C(O)c1ccc(NC(=O)C(COC2CCCCO2)NS(=O)(=O)c2ccc(Cl)cc2)cc1` (racemic) [Example 40, (RS)-N-(4-carboxyphenyl)-2-(4-chlorobenzenesulfonylamino)-3-(tetrahydropyran-2-yloxy)propanamide], the IC50 in experiment [1] was determined as 0.5 µM; with rat platelet, 0.52 µM. For the same compound, in experiment [2], the Kb is 28.8 nM.

With `O=C(O)Cc1ccc(NC(=O)C(COC2CCCCO2)NS(=O)(=O)c2ccc(Cl)cc2)cc1` (racemic) [Example 41, (RS)-N-(4-(carboxymethyl)phenyl)-2-(4-chlorobenzenesulfonylamino)-3-(tetrahydropyran-2-yloxy)propanamide], the IC50 was 0.057 µM in experiment [1] and 0.18 µM in the experiment on rat platelet. Also, in experiment [2], the Kb is 6.92 nM.

On to `O=C(O)CCc1ccc(NC(=O)C(COC2CCCCO2)NS(=O)(=O)c2ccc(Cl)cc2)cc1` (racemic) [Example 42, (RS)-N-(4-(2-carboxyethyl)phenyl)-2-(4-chlorobenzenesulfonylamino)-3-(tetrahydropyran-2-yloxy)propanamide], for which the IC50 worked out at 0.088 µM in experiment [1] and 0.54 µM in the experiment with rat platelet. In addition, the Kb in experiment [2] was 12.9 nM.

On to `O=C(O)c1cccc(NC(=O)C(COC2CCCCO2)NS(=O)(=O)c2ccc(Cl)cc2)c1` (racemic) [Example 44, (RS)-N-(3-carboxyphenyl)-2-(4-chlorobenzenesulfonylamino)-3-(tetrahydropyran-2-yloxy) propanamide], for which the IC50 in experiment [1] stood at 0.4 µM; in the experiment with rat platelet, 0.3 µM. In addition, in experiment [2], the Kb was 32.4 nM.

Regarding `O=C(O)Cc1ccc(NC(=O)C(COC2CCCCO2)NS(=O)(=O)c2ccc(Br)cc2)cc1` (racemic) [Example 54, (RS)-2-(4-bromobenzenesulfonylamino)-N-(4-(carboxymethyl)phenyl)-3-(tetrahydropyran-2-yloxy)propanamide], the half-inhibitory concentration (IC50) in experiment [1] was 0.033 µM; with rat platelet, 0.17 µM. For the same compound, the Kb in experiment [2] was 5.89 nM.

`O=C(O)Cc1ccc(NC(=O)C(COC2CCCCO2)NS(=O)(=O)c2ccc(I)cc2)cc1` (racemic) [Example 55, (RS)-N-(4-(carboxymethyl)phenyl)-2-(4-iodobenzenesulfonylamino)-3-(tetrahydropyran-2-yloxy)propanamide]: the IC50 in experiment [1] came to 0.016 µM; in the experiment on rat platelet, 0.53 µM. In experiment [2], the Kb was 3.8 nM.

Take `O=C(O)COc1ccc(CCNS(=O)(=O)c2ccc(Cl)cc2)cc1` [Control Compound, 4-[2-(4-chlorobenzenesulfonylamino)ethyl]-phenoxy acetic acid, reference compound]: the 50% inhibitory concentration (IC50) in experiment [1] came to 2 µM; with rat platelet, 1.7 µM. Also, in experiment [2], the Kb is 126 nM.

For the origin of these results see patent US5650428A, “Arylsulfonamide derivative and pharmaceutical compositions and use thereof” (NKK Corporation, priority 1993, dated 1997).
